We go through 12 compounds from ChEMBL document CHEMBL4396896, “N-Aminoacyl and N-hydroxyacyl derivatives of diosgenyl 2-amino-2-deoxy-β-d-glucopyranoside: Synthesis, antimicrobial and hemolytic activities” (Bioorg Med Chem, 2019).

Data set [1] concerns Candida albicans. In words: Antifungal activity against Candida albicans ATCC 10231 incubated in sabouraud liquid medium under aerobic condition for 48 hrs using initial inoculum of 10^3 CFU/ml by serial dilution method. The settings on record: ATCC 10231, 48 h. The format is functional.
Data set [2] concerns Bacillus subtilis. The data set is described as follows: Antibacterial activity against Bacillus subtilis ATCC 6633 incubated in MHB II under aerobic condition for 18 hrs using initial inoculum of 5 x 10^5 CFU/ml by serial dilution method. The data set is classed as functional. The settings on record: ATCC 6633, 18 h.
In data set [3] the test system is Enterococcus faecalis. In words: Antibacterial activity against Enterococcus faecalis ATCC 29212 incubated in MHB II under aerobic condition for 18 hrs using initial inoculum of 5 x 10^5 CFU/ml by serial dilution method. The format is functional. The settings on record: ATCC 29212, 18 h.
Data set [4] concerns Staphylococcus aureus. The data set is described as follows: Antibacterial activity against Staphylococcus aureus ATCC 25923 incubated in MHB II under aerobic condition for 18 hrs using initial inoculum of 5 x 10^5 CFU/ml by serial dilution method. The data set is classed as functional. The settings on record: ATCC 25923, 18 h.
The test system of data set [5] is Staphylococcus epidermidis. In words: Antibacterial activity against Staphylococcus epidermidis PCM 2118 incubated in MHB II under aerobic condition for 18 hrs using initial inoculum of 5 x 10^5 CFU/ml by serial dilution method. The settings on record: PCM 2118, 18 h. The format is functional.
Data set [6] concerns Escherichia coli. In words: Antibacterial activity against Escherichia coli ATCC 25922 incubated in MHB II under aerobic condition for 18 hrs using initial inoculum of 5 x 10^5 CFU/ml by serial dilution method. The format is functional. The following applies: ATCC 25922, 18 h.
The subject of data set [7] is Klebsiella pneumoniae. In words: Antibacterial activity against Klebsiella pneumoniae ATCC 700603 incubated in MHB II under aerobic condition for 18 hrs using initial inoculum of 5 x 10^5 CFU/ml by serial dilution method. The data set is classed as functional. The settings on record: ATCC 700603, 18 h.
For data set [8], the system named is Proteus mirabilis. In words: Antibacterial activity against Proteus mirabilis PCM 543 incubated in MHB II under aerobic condition for 18 hrs using initial inoculum of 5 x 10^5 CFU/ml by serial dilution method. The data set is classed as functional. The following applies: PCM 543, 18 h.
Data set [9] relates to Pseudomonas aeruginosa. The data set is described as follows: Antibacterial activity against Pseudomonas aeruginosa ATCC 9027 incubated in MHB II under aerobic condition for 18 hrs using initial inoculum of 5 x 10^5 CFU/ml by serial dilution method. The format is functional. The following applies: ATCC 9027, 18 h.
Data set [10] has as its system Yarrowia lipolytica. The data set is described as follows: Antifungal activity against Candida lipolytica PCM 2680 incubated in sabouraud liquid medium under aerobic condition for 48 hrs using initial inoculum of 10^3 CFU/ml by serial dilution method. The following applies: PCM 2680, 48 h. The data set is classed as functional.
Data set [11] can be described thus: Haemolytic activity in human erythrocytes assessed as haemolytic index by measuring hemoglobin release at 0.5 to 128 mg/L incubated for 1 hr by microplate spectrophotometry relative to control. The format is ADME, cell-based, Erythrocyte. The following applies: human erythrocytes, read-out: HI.
A short description of data set [12]: Haemolytic activity in human erythrocytes assessed as haemolytic index by measuring hemoglobin release at 128 mg/L incubated for 1 hr by microplate spectrophotometry. The data set is classed as ADME, cell-based, Erythrocyte. The settings on record: read-out: HI.

Values after ≈ are worked out from the molar mass of the structure shown.

As a reminder, the MIC is the least concentration at which growth counts as inhibited. A lower MIC goes with inhibition by little substance. Consider `CC(=O)N[C@H]1[C@H](O[C@H]2CC[C@@]3(C)C(=CC[C@H]4[C@@H]5C[C@@H]6O[C@]7(CC[C@@H](C)CO7)[C@@H](C)[C@@H]6[C@@]5(C)CC[C@@H]43)C2)O[C@H](CO)[C@@H](O)[C@@H]1O`, for which the MIC in [1], in [2], in data set [3], in data set [4], in data set [5] and in data set [6] was more than 128 µg/mL each time. Also, the minimal inhibitory concentration (MIC) in data set [7], in [8] and in data set [9] was more than 128 µg/mL in each case.

For `C[C@@H]1CC[C@@]2(OC1)O[C@H]1C[C@H]3[C@@H]4CC=C5C[C@@H](O[C@@H]6O[C@H](CO)[C@@H](O)[C@H](O)[C@H]6NC(=O)CO)CC[C@]5(C)[C@H]4CC[C@]3(C)[C@H]1[C@@H]2C`, the MIC in data set [1], in data set [10], in data set [2], in data set [3], in data set [4] and in data set [5] was more than 128 µg/mL each time. The MIC in data set [6], in data set [7], in data set [8] and in [9] was more than 128 µg/mL each time. Also, the hemolysis at 1 h in [11] is less than 10%.

Regarding `C[C@@H]1CC[C@@]2(OC1)O[C@H]1C[C@H]3[C@@H]4CC=C5C[C@@H](O[C@@H]6O[C@H](CO)[C@@H](O)[C@H](O)[C@H]6NC(=O)[C@@H](N)CO)CC[C@]5(C)[C@H]4CC[C@]3(C)[C@H]1[C@@H]2C`, the minimal inhibitory concentration (MIC) worked out at 4 µg/mL (≈ 6.03 µM) in data set [1]; 4 µg/mL (≈ 6.03 µM) in [10]; 8 µg/mL (≈ 12.1 µM) in [2]; 16 µg/mL (≈ 24.1 µM) in data set [3]; 8 µg/mL (≈ 12.1 µM) in [4]; 4 µg/mL (≈ 6.03 µM) in data set [5]. The MIC in data set [6], in [7], in data set [8] and in data set [9] was more than 128 µg/mL throughout. Also, the hemolysis at 1 h, 128 mg/L in data set [12] came to 46%.

On to `CNCC(=O)N[C@H]1[C@H](O[C@H]2CC[C@@]3(C)C(=CC[C@H]4[C@@H]5C[C@@H]6O[C@]7(CC[C@@H](C)CO7)[C@@H](C)[C@@H]6[C@@]5(C)CC[C@@H]43)C2)O[C@H](CO)[C@@H](O)[C@@H]1O`, for which the MIC in data set [1], in data set [10], in data set [2], in [3], in [4] and in data set [5] was 4 µg/mL (≈ 6.18 µM) each time. The MIC in [6], in data set [7], in [8] and in data set [9] was more than 128 µg/mL in each case. In addition, the hemolysis at 1 h in data set [11] is less than 10%.

With `CSCC[C@H](N)C(=O)N[C@H]1[C@H](O[C@H]2CC[C@@]3(C)C(=CC[C@H]4[C@@H]5C[C@@H]6O[C@]7(CC[C@@H](C)CO7)[C@@H](C)[C@@H]6[C@@]5(C)CC[C@@H]43)C2)O[C@H](CO)[C@@H](O)[C@@H]1O`, the MIC is more than 128 µg/mL in [2]; 4 µg/mL (≈ 5.66 µM) in data set [3]; more than 128 µg/mL in [4]; 4 µg/mL (≈ 5.66 µM) in [5]; more than 128 µg/mL in data set [6]; more than 128 µg/mL in data set [7]. Also, the MIC in data set [8] and in data set [9] was more than 128 µg/mL in each case. Moreover, the hemolysis at 1 h in [11] is less than 4%.

With `CC(=O)NCC(=O)N[C@H]1[C@H](O[C@H]2CC[C@@]3(C)C(=CC[C@H]4[C@@H]5C[C@@H]6O[C@]7(CC[C@@H](C)CO7)[C@@H](C)[C@@H]6[C@@]5(C)CC[C@@H]43)C2)O[C@H](CO)[C@@H](O)[C@@H]1O`, the MIC in data set [1], in data set [10], in [2], in data set [3], in [4] and in data set [5] was more than 128 µg/mL throughout. Also, the MIC in [6], in [7], in data set [8] and in [9] was more than 128 µg/mL throughout. In addition, the hemolysis at 1 h in data set [11] was less than 10%.

As to `C[C@@H]1CC[C@@]2(OC1)O[C@H]1C[C@H]3[C@@H]4CC=C5C[C@@H](O[C@@H]6O[C@H](CO)[C@@H](O)[C@H](O)[C@H]6NC(=O)C(F)(F)F)CC[C@]5(C)[C@H]4CC[C@]3(C)[C@H]1[C@@H]2C`, the minimal inhibitory concentration (MIC) in data set [1], in data set [2], in data set [3], in [4], in [5] and in [6] was more than 128 µg/mL throughout. In addition, the MIC in data set [7], in data set [8] and in [9] was more than 128 µg/mL in each case.

For `C[C@@H]1CC[C@@]2(OC1)O[C@H]1C[C@H]3[C@@H]4CC=C5C[C@@H](O[C@@H]6O[C@H](CO)[C@@H](O)[C@H](O)[C@H]6NC(=O)[C@H](C)N)CC[C@]5(C)[C@H]4CC[C@]3(C)[C@H]1[C@@H]2C`, the MIC in [1] turned out to be 4 µg/mL (≈ 6.18 µM); in [10] it was 2 µg/mL (≈ 3.09 µM); in [2], 8 µg/mL (≈ 12.4 µM); in data set [3] it was 4 µg/mL (≈ 6.18 µM); in data set [4], 4 µg/mL (≈ 6.18 µM); in data set [5], 4 µg/mL (≈ 6.18 µM). Besides, the MIC in data set [6], in data set [7], in [8] and in data set [9] was more than 128 µg/mL in each case. In addition, the hemolysis at 1 h in data set [11] was less than 10%.

On to `C[C@@H]1CC[C@@]2(OC1)O[C@H]1C[C@H]3[C@@H]4CC=C5C[C@@H](O[C@@H]6O[C@H](CO)[C@@H](O)[C@H](O)[C@H]6NC(=O)[C@@H](C)N)CC[C@]5(C)[C@H]4CC[C@]3(C)[C@H]1[C@@H]2C`, for which the MIC turned out to be 4 µg/mL (≈ 6.18 µM) in data set [1]; 8 µg/mL (≈ 12.4 µM) in [10]; 2 µg/mL (≈ 3.09 µM) in data set [2]; 2 µg/mL (≈ 3.09 µM) in data set [3]; 2 µg/mL (≈ 3.09 µM) in data set [4]; 2 µg/mL (≈ 3.09 µM) in [5]. Moreover, the MIC in [6], in [7], in [8] and in data set [9] was more than 128 µg/mL each time. For the same compound, the hemolysis at 1 h in data set [11] was less than 10%.

Regarding `C[C@@H]1CC[C@@]2(OC1)O[C@H]1C[C@H]3[C@@H]4CC=C5C[C@@H](O[C@@H]6O[C@H](CO)[C@@H](O)[C@H](O)[C@H]6NC(=O)[C@@H](N)CCCCN)CC[C@]5(C)[C@H]4CC[C@]3(C)[C@H]1[C@@H]2C`, the MIC amounted to 4 µg/mL (≈ 5.68 µM) in data set [1]; 4 µg/mL (≈ 5.68 µM) in data set [10]; 32 µg/mL (≈ 45.5 µM) in data set [2]; 16 µg/mL (≈ 22.7 µM) in data set [3]; 16 µg/mL (≈ 22.7 µM) in data set [4]; 16 µg/mL (≈ 22.7 µM) in [5]. Besides, the MIC in [6], in [7], in data set [8] and in [9] was more than 128 µg/mL in each case. Besides, the hemolysis at 1 h, 128 mg/L in data set [12] stood at 92%.

In the case of `C[C@@H]1CC[C@@]2(OC1)O[C@H]1C[C@H]3[C@@H]4CC=C5C[C@@H](O[C@@H]6O[C@H](CO)[C@@H](O)[C@H](O)[C@H]6NC(=O)[C@@H](N)[C@@H](C)O)CC[C@]5(C)[C@H]4CC[C@]3(C)[C@H]1[C@@H]2C`, the MIC turned out to be 4 µg/mL (≈ 5.91 µM) in data set [1]; 4 µg/mL (≈ 5.91 µM) in data set [10]; 32 µg/mL (≈ 47.3 µM) in data set [2]; 16 µg/mL (≈ 23.6 µM) in [3]; 16 µg/mL (≈ 23.6 µM) in [4]; 16 µg/mL (≈ 23.6 µM) in data set [5]. In addition, the MIC in [6], in [7], in data set [8] and in data set [9] was more than 128 µg/mL each time. Moreover, the hemolysis at 1 h, 128 mg/L in data set [12] is 56%.

`C[C@@H]1CC[C@@]2(OC1)O[C@H]1C[C@H]3[C@@H]4CC=C5C[C@@H](O[C@@H]6O[C@H](CO)[C@@H](O)[C@H](O)[C@H]6NC(=O)[C@H](C)O)CC[C@]5(C)[C@H]4CC[C@]3(C)[C@H]1[C@@H]2C`: the MIC in data set [1], in data set [10], in [2], in data set [3], in data set [4] and in data set [5] was more than 128 µg/mL in each case. Further, the MIC in [6], in data set [7], in data set [8] and in data set [9] was more than 128 µg/mL each time. In addition, the hemolysis at 1 h in data set [11] is less than 10%.
